From publication PMC9247344 (ACS infectious diseases, 2021)

What was measured:
[1] = Cytotoxicity against HepG2; type: cell-based, human; conditions: human, HepG2 cells
[2] = test system: P. falciparum asexual blood stages (PfABS), strain W2; type: cell-based, Plasmodium falciparum; conditions: for Selectivity Index: PfABS versus HepG2 cytotoxicity; for EC50: Plasmodium falciparum, W2, read-out: PfABS pEC50 (±S.D.) (converted)
[3] = test system: HepG2 human hepatocellular carcinoma cell line; assay: Cytotoxicity against HepG2; type: cell-based; conditions: HepG2, 72 h; mean (±S.D.), n≥3; <5.00 = inactive at all concentrations tested

SMILES	CC50 at 72 h [1] [µM]	Selectivity Index [2]	EC50 [2] [µM]	Cytotoxicity pCC50 (±S.D.) [3]
C[C@H]1[C@H](OC(=O)CCC(=O)O)O[C@@H]2O[C@@]3(C)CC[C@H]4[C@H](C)CC[C@@H]1[C@@]24OO3 [artesunate]	3.55	3160	0.00112	
C[C@H]1[C@@H](O)O[C@@H]2O[C@@]3(C)CC[C@H]4[C@H](C)CC[C@@H]1[C@@]24OO3 [DHA, dihydroartemisinin]	> 8.51	> 9770	0.000871	
COc1ccc(C[C@H](N)C(=O)N[C@H]2[C@@H](O)[C@H](n3cnc4c(N(C)C)ncnc43)O[C@@H]2CO)cc1 [puromycin]	0.407	8.71	0.0468	
CC1CCC2C(C)C(CCCO)OC3OC4(C)CCC1C32OO4 (centres unmarked) [Compound 6a]		> 891		< 5.00 (0.00)
C[C@@H]1CC[C@H]2[C@@H](C)C(=O)O[C@@H]3O[C@@]4(C)CC[C@@H]1[C@]32OO4 [artemisinin]	> 10	> 2950	0.00339	
